Values after ≈ are worked out from the molar mass of the structure shown.
Columns and labels:
[1] = target: T1, Dihydrofolate reductase (Homo sapiens, UniProt P00374); experiment: Inhibition of human DHFR
T1 sequence (P00374 whole entry): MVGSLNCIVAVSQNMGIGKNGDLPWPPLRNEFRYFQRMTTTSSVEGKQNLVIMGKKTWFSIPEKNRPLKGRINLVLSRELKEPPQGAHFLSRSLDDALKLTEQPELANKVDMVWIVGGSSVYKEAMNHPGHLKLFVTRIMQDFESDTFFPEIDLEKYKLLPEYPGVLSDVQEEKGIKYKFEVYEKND

[2] = test system: Staphylococcus aureus; experiment: Antibacterial activity against TMP-resistant Staphylococcus aureus BHKS 721 incubated for 24 hrs by CLSI based broth microdilution assay; format: functional
[3] = test system: Staphylococcus aureus; experiment: Antibacterial activity against TMP-resistant Staphylococcus aureus BHKS 227 incubated for 24 hrs by CLSI based broth microdilution assay; format: functional
[4] = test system: Staphylococcus aureus; experiment: Antibacterial activity against Staphylococcus aureus USA 300 incubated for 24 hrs by CLSI based broth microdilution assay; format: functional
[5] = target: Dihydrofolate reductase (Staphylococcus aureus, UniProt P0A017); experiment: Inhibition of Staphylococcus aureus DHFR expressed in Escherichia coli BL21 (DE3) using DHF as substrate preincubated for 10 mins followed by substrate addition measured for 10 mins in presence of NADPH by spectrophotometry
Chain of Dihydrofolate reductase (Staphylococcus aureus, UniProt P0A017) (P0A017 whole entry): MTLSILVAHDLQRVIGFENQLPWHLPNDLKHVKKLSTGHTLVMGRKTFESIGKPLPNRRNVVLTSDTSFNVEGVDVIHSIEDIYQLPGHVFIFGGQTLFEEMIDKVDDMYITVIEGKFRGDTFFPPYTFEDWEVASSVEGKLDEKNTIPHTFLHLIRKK

[6] = Cytotoxicity against human NCM460 cells assessed as inhibition rate of cell growth at 100 uM incubated for 24 hrs by CCK8 assay relative to control; format: toxicity, cell-based
[7] = test system: Staphylococcus aureus; experiment: Antibacterial activity against TMP-resistant Staphylococcus aureus BHKS 723 incubated for 24 hrs by CLSI based broth microdilution assay; format: functional
[8] = Cytotoxicity against HEK293 cells assessed as inhibition rate of cell growth at 100 uM incubated for 24 hrs by CCK8 assay relative to control; format: toxicity, cell-based; details: human
[9] = test system: Staphylococcus aureus; experiment: Antibacterial activity against Staphylococcus aureus ATCC 25923 incubated for 24 hrs by CLSI based broth microdilution assay; format: functional
[10] = test system: Dihydrofolate reductase (Staphylococcus aureus); details: dose 100.0 nM
[11] = test system: Mycobacterium tuberculosis; experiment: Antibacterial activity against Mycobacterium tuberculosis H37Ra; format: functional
[12] = target: T2, Dihydrofolate reductase (Mycobacterium tuberculosis, UniProt P9WNX1); experiment: Inhibition of Mycobacterium tuberculosis DHFR
T2 sequence (P9WNX1 whole entry): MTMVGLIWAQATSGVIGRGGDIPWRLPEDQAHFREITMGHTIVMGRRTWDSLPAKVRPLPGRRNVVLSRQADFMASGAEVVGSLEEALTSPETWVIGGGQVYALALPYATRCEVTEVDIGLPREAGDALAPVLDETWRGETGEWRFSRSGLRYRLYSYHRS

[13] = test system: Staphylococcus aureus; experiment: Antibacterial activity against TMP-resistant Staphylococcus aureus BHKS 231 incubated for 24 hrs by CLSI based broth microdilution assay; format: functional

COc1cc(C(C)C)c(Oc2cnc(N)nc2N)cc1-c1ccc(C(C)C)cc1
IC50 [1]: 2910 nM | MIC [2]: 4 µg/mL (≈ 10.2 µM) | MIC [3]: 1 µg/mL (≈ 2.55 µM) | MIC [4]: 0.25 µg/mL (≈ 0.637 µM) | IC50 [5]: 1.81 nM | inhibition at 24 h, 100 µM [6]: 44% | MIC [7]: 4 µg/mL (≈ 10.2 µM) | inhibition at 24 h, 100 µM [8]: 46.9% | MIC [9]: 0.25 µg/mL (≈ 0.637 µM) | inhibition [10]: 55.7%

COc1cc(C(C)C)c(Oc2cnc(N)nc2N)cc1I
MIC [11]: 50 µg/mL (≈ 125 µM) | IC50 [1]: 176000 nM | MIC [2]: 8 µg/mL (≈ 20 µM) | MIC [3]: 0.5 µg/mL (≈ 1.25 µM) | MIC [4]: 0.063 µg/mL (≈ 0.157 µM) | IC50 [5]: 32.9 nM | inhibition at 24 h, 100 µM [6]: 32.1% | MIC [7]: 8 µg/mL (≈ 20 µM) | inhibition at 24 h, 100 µM [8]: 26.1% | MIC [9]: 0.125 µg/mL (≈ 0.312 µM) | IC50 [12]: 3500 nM

Cc1cc(NS(=O)(=O)c2ccc(N)cc2)no1 [SULFAMETHOXAZOLE]
MIC [13]: 256 µg/mL (≈ 1010 µM) | MIC [2]: 0.5 µg/mL (≈ 1.97 µM) | MIC [3]: 4 µg/mL (≈ 15.8 µM) | MIC [4]: 2 µg/mL (≈ 7.9 µM) | MIC [7]: 4 µg/mL (≈ 15.8 µM) | MIC [9]: 2 µg/mL (≈ 7.9 µM)

From ChEMBL document CHEMBL5528082 (J Med Chem, 2024)
